Our source for the MIC and IC50 values is US20180312493A1, “Antibiotic Compounds, Pharmaceutical Formulations Thereof And Methods And Uses Therefor” (Simon Fraser University, priority 2015, published 2018).

Each structure is given as a SMILES string. Values after ≈ are worked out from the molar mass of the structure shown.

One assay concerns S. aureus (ATCC29213). The assay is described as follows: In vitro susceptibility, broth microdilution (MIC). As to conditions: Staphylococcus aureus; S. aureus ATCC29213; 18-24 h, 37 C; read-out: Antimicrobial activity (MIC) S. aureus ATCC29213. In kind it is cell-based. In short, it runs like this: (§1)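 CLSI 2-fold serial broth microdilution; K. pneumoniae C238 grown in L-broth, S. aureus ATCC 29213 in Mueller Hinton broth, plates incubated 18–24 h at 37 °C. MIC taken as lowest concentration giving complete growth inhibition by OD600 versus compound-free wells, background-subtracted.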
(Broth dilution looks for growth in wells or tubes with falling amounts of substance.)

Assay [1] deals with A. baumannii (ATCC 17978). As to the kind of experiment: In vitro susceptibility, broth microdilution (MIC). The class given is cell-based. As to conditions: Acinetobacter baumannii, ATCC17978; A. baumannii ATCC 17978 (values marked *); read-out: Antimicrobial activity (MIC) A. baumannii. The text has this:
(§2) Epidemic methicillin resistant S. aureus (MRSA) strain sequenced at the Sanger Centre (MRSA252, NRS71) was obtained from NARSA (Network on Antimicrobial Resistance in S. aureus). Methicillin sensitive S. aureus (ATCC 29213 and 25923), methicillin resistant S. aureus (ATCC BAA-1762), and Salmonella typhimurium (ATCC BAA-185) were obtained from ATCC, The Global Bioresource Center. Acinetobacter baumannii (ATCC 19606 and ATCC 17978), Klebsiella pneumonia (C238), vancomycin resistant Enterococci #2 (2010A) (VRE#2), MRSA (USA400, MW2) and Pseudomonas aeruginosa (PA0-1) were obtained from the laboratory of Dr B. B. Finlay at the University of British Columbia (Vancouver, Canada).
(§3) The antimicrobial activities of PK inhibitor candidates were determined using the 96-well microtiter standard 2-fold serial broth microdilution method as described by CLSI (formerly NCCLS) with the various gram-positive and gram-negative bacteria species mentioned above. Bacteria from a single colony were grown, overnight in either BHI Broth (VRE), mueller hinton broth (S. aureus 29213; MRSA USA400, A. baumannii 19606, MRSA BAA-1762) or L-broth (P. aeruginosa, S. typhimurium, K. pneumonia and A. baumannii 17978). Each compound was prepared in DMSO with 2-fold serial dilutions to give a final concentration of, 0.031 to 64 μg/ml. 10 μl of the compound solution was then added, in duplicate, to either, 190 μl of cation adjusted mueller hinton broth (CAMHB) or 190 μl CAMHB containing ˜2.5×10^5 CFU/ml of bacteria (final compound concentration 0.031 to 64 μg/ml). Culture plates were incubated for 18-24 h at 37° C., and optical density at 600 nm (OD600) was measured using a Benchmark Plus™ microplate spectrophotometer (Bio-Rad™). The absorbance control values for the series containing CAMHB and inhibitor were subtracted as background from the corresponding infected wells. Minimal inhibitory concentration (MIC) was defined as the lowest concentration of test compound leading to complete inhibition of cell growth in relation to compound-free control wells as determined by optical density. Vancomycin, methicillin and ciprofloxicin were used as reference compounds. All assays were run in triplicate or duplicate. Experiments were replicated at least twice to verify reproducibility using the above conditions.

The target of the next assay is T1, MRSA Pyk (Staphylococcus aureus, UniProt Q6GG09).
T1 construct: made in house; host or cells: E. coli BL-21 (DE3)
As to the kind of experiment: MRSA pyruvate kinase (PK) activity, continuous LDH-coupled assay. In kind it is biochemical, methicillin resistant S. aureus (MRSA252). In short, it runs like this: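 Activity monitored continuously as absorbance change at 340 nm from NADH oxidation via coupled lactate dehydrogenase, reactions started with 15 nM recombinant His-tagged PK (MRSA or human isoform) and run at 30° C for up to 5 min. Ki derived by varying inhibitor (0-400 nM) and PEP (2-20 mM) at 2 mM ADP; IC50 by four-parameter fitting.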

In a further assay the test system is K. pneumoniae (C238). As to the kind of experiment: In vitro susceptibility, broth microdilution (MIC). In kind it is cell-based. The following applies: Klebsiella pneumoniae; K. pneumoniae (C238); read-out: Antimicrobial activity (MIC) K. pneumoniae. In short, it runs like this:
as §1

A further assay concerns VRE#2 (2010A). As to the kind of experiment: In vitro susceptibility, broth microdilution (MIC). The class given is cell-based, vancomycin resistant Enterococci. The following applies: VRE#2 (2010A); read-out: Antimicrobial activity (MIC) VRE#2. In short, it runs like this: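 MIC determined by CLSI 2-fold broth microdilution in cation-adjusted Mueller–Hinton broth at ~2.5×10^5 CFU/ml, final compound 0.031–64 μg/ml, 18–24 h at 37 °C. MIC is the lowest concentration giving complete growth inhibition by background-corrected OD600 versus compound-free wells; duplicate or triplicate wells, replicated at least twice.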

For assay [2], the system named is A. baumannii (ATCC 19606). The assay is described as follows: In vitro susceptibility, broth microdilution (MIC). The class given is cell-based. As to conditions: Acinetobacter baumannii, ATCC19606; A. baumannii ATCC 19606 (values without asterisk); read-out: Antimicrobial activity (MIC) A. baumannii.
Text: as §2, §3

T1 sequence (Q6GG09 whole entry): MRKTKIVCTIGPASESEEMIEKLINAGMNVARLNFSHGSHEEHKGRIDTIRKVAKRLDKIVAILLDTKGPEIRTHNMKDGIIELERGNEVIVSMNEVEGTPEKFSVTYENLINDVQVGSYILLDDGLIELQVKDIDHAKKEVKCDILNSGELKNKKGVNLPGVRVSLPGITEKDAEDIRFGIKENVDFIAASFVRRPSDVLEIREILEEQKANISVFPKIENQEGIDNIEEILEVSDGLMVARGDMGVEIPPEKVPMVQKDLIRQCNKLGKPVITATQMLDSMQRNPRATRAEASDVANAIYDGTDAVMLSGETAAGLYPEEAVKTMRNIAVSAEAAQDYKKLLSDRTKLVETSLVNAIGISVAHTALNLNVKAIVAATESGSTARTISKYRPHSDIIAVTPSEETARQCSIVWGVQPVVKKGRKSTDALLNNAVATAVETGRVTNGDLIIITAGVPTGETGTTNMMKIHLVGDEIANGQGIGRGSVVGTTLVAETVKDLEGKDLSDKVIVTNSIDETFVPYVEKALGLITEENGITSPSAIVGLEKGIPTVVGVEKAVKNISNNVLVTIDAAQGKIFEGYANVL

Take `COc1cc2sc(NC(=O)Nc3ccccc3)nc2cc1Br` [Compound 153, 1-(5-bromo-6-methoxybenzo[d]thiazol-2-yl)-3-phenylurea]: the MIC (with S. aureus (ATCC29213); in assay [1]) was over 64 µg/mL throughout.

As for `CN1CCN(CCNC(=O)COc2cc3[nH]c(-c4cc5ccc(Br)cc5[nH]4)cc3cc2Cl)C(c2ccccc2)C1` (stereo not drawn) [Compound 194, 2-((6′-Bromo-5-chloro-1H,1′H-[2,2′-biindol]-6-yl)oxy)-N-(2-(4-methyl-2-phenylpiperazin-1-yl)ethyl)acetamide], the MIC (with S. aureus (ATCC29213); in assay [1]) was over 64 µg/mL each time.

For the compound `O=C(NCCN1CCNCC1=O)c1c(-c2cc3cc(Cl)ccc3[nH]2)[nH]c2cc(Br)ccc12` [Compound 143, 6-bromo-5′-chloro-N-(2-(2-oxopiperazin-1-yl)ethyl)-1H,1′H-[2,2′-biindole]-3-carboxamide], the MIC (in the assay with S. aureus (ATCC29213); in assay [1]) was over 64 µg/mL throughout.

As to `NC(=O)N1CCC(NCCNC(=O)c2c(-c3cc4cc(Cl)ccc4[nH]3)[nH]c3cc(Br)ccc23)CC1` [Compound 131, 6-bromo-N-(2-(1-carbamoylpiperidin-4-ylamino)ethyl)-5′-chloro-1H,1′H-2,2′-biindole-3-carboxamide], the figures for the minimum inhibitory concentration (MIC) (in the assay with S. aureus (ATCC29213); in assay [1]) were over 64 µg/mL and 64 µg/mL (≈ 115 µM), respectively.

On to `Clc1cnc2nc(-c3cc4ccc(Br)cc4[nH]3)[nH]c2c1` [Compound 209, 2-(6-Bromo-1H-indol-2-yl)-6-chloro-1H-imidazo[4,5-b]pyridine], for which the MIC (with S. aureus (ATCC29213); in assay [1]) was over 64 µg/mL each time.

For the compound `O=C(NCCc1ccncc1)c1c(-c2cc3cc(Cl)ccc3[nH]2)[nH]c2cc(Br)ccc12` [Compound 142, 6-bromo-5′-chloro-N-(2-(pyridin-4-yl)ethyl)-1H,1′H-[2,2′-biindole]-3-carboxamide], the concentration for half-maximal inhibition (IC50) – broadly, the point on the concentration scale where inhibition reaches its midpoint – at MRSA Pyk is under 100 nM. Also, the MIC (with S. aureus (ATCC29213); in assay [1]) was over 64 µg/mL each time.

For the compound `OCCn1c(-c2cc3ccc(Br)cc3[nH]2)nc2cc(Cl)c(Cl)cc21` [Compound 211, 2-(2-(6-Bromo-1H-indol-2-yl)-5,6-dichloro-1H-benzo[d]imidazol-1-yl)ethan-1-ol], the MIC (with S. aureus (ATCC29213); in assay [1]) was over 64 µg/mL each time.

For the compound `O=C(COc1cc2[nH]c(-c3cc4ccc(Br)cc4[nH]3)cc2cc1Cl)NCCO` [Compound 192, 2-((6′-Bromo-5-chloro-1H,1′H-[2,2′-biindol]-6-yl)oxy)-N-(2-hydroxyethyl)acetamide], the IC50 on MRSA Pyk is under 100 nM. The minimum inhibitory concentration (MIC) (in the assay on S. aureus (ATCC29213); in assay [1]) was over 64 µg/mL each time.

On to `CCOC(CCCNC(=O)c1c(-c2cc3cc(Cl)ccc3[nH]2)[nH]c2cc(Br)ccc12)OCC` [Compound 135, 6-Bromo-5′-chloro-N-(4,4-diethoxybutyl)-1H,1′H-[2,2′-biindole]-3-carboxamide], for which the MIC (with S. aureus (ATCC29213); in assay [1]) was over 64 µg/mL throughout.

On to `CN(C)CCNC(=O)COc1cc2[nH]c(-c3cc4ccc(Br)cc4[nH]3)cc2cc1Cl` [Compound 189, 2-((6′-Bromo-5-chloro-1H,1′H-[2,2′-biindol]-6-yl)oxy)-N-(2-(dimethylamino)ethyl)acetamide], for which the IC50 at MRSA Pyk was under 100 nM. Also, the minimal inhibitory concentration (MIC) (with S. aureus (ATCC29213); in assay [1]) was over 64 µg/mL in each case.

In turn, `NC(=O)[C@@H]1CCCN1CCNC(=O)c1c(-c2cc3cc(Cl)ccc3[nH]2)[nH]c2cc(Br)ccc12` [Compound 120, (S)-6-Bromo-N-(2-(2-carbamoylpyrrolidin-1-yl)ethyl)-5′-chloro-1H,1′H-[2,2′-biindole]-3-carboxamide] registered an IC50 against MRSA Pyk of under 100 nM. Further, the minimum inhibitory concentration (MIC) (with S. aureus (ATCC29213); in assay [1]) was over 64 µg/mL each time.

As to `O=C(Nc1ccc([N+](=O)[O-])cc1)Nc1nc2cc(Br)ccc2s1` [Compound 154, 1-(5-bromobenzo[d]thiazol-2-yl)-3-(4-nitrophenyl)urea], the MIC (in the assay with S. aureus (ATCC29213); in assay [1]) was over 64 µg/mL in each case.

The compound `CN(C)CCNC(=O)c1c(-c2cc3cc(Cl)ccc3[nH]2)[nH]c2cc(Br)ccc12` [Compound 73, 6-Bromo-5′-chloro-N-(2-(dimethylamino)ethyl)-1H,1′H-[2,2′-biindole]-3-carboxamide] displayed an IC50 on MRSA Pyk of under 100 nM. The MIC – broadly, the lowest concentration found to suppress growth – worked out at 8 µg/mL (≈ 17.4 µM) in the assay on S. aureus (ATCC29213), 8 µg/mL (≈ 17.4 µM) in the assay on K. pneumoniae (C238), 8 µg/mL (≈ 17.4 µM) in the assay with VRE#2 (2010A) and 64 µg/mL (≈ 139 µM) in assay [2].

`CC(=O)OCCCNC(=O)c1c(-c2cc3cc(Cl)ccc3[nH]2)[nH]c2cc(Br)ccc12` [Compound 183, 3-(6-Bromo-5′-chloro-1H,1′H-[2,2′-biindole]-3-carboxamido)propyl Acetate] displayed a 50% inhibitory concentration (IC50) against MRSA Pyk of under 100 nM. In addition, the MIC (in the assay on S. aureus (ATCC29213); in assay [1]) was over 64 µg/mL in each case.

On to `O=C(Nc1nc2cc(Br)ccc2s1)Nc1ccc(Cl)cc1C(F)(F)F` [Compound 157, 1-(5-bromobenzo[d]thiazol-2-yl)-3-(4-chloro-2-(trifluoromethyl)phenyl)urea], for which the MIC in assay [1] was over 64 µg/mL.

As to `CN1CCC(CCNC(=O)c2c(/C=C/c3ccc(Cl)cc3)[nH]c3cc(Br)ccc23)CC1` [Compound 40, (E)-6-Bromo-2-(4-chlorostyryl)-N-(2-(1-methylpiperidin-4-yl)ethyl)-1 H-indole-3-carboxamide], the 50% inhibitory concentration (IC50) against MRSA Pyk is 100 to 1000 nM. Besides, the MIC with S. aureus (ATCC29213) was 8 µg/mL (≈ 16 µM); with K. pneumoniae (C238), 16 µg/mL (≈ 31.9 µM); with VRE#2 (2010A), 8 µg/mL (≈ 16 µM); in assay [2], over 64 µg/mL.

Take `COC(=O)c1c(NC(=O)Nc2ccc(Cl)cc2)[nH]c2cc(Br)ccc12` [Compound 181, Methyl 6-bromo-2-(3-(4-chlorophenyl)ureido)-1 H-indole-3-carboxylate]: the MIC (in the assay with S. aureus (ATCC29213); in assay [1]) was over 64 µg/mL in each case.

With `O=C(O)Cn1c(-c2cc3ccc(Br)cc3[nH]2)nc2cc(Cl)c(Cl)cc21` [Compound 213, 2-(2-(6-Bromo-1H-indol-2-yl)-5,6-dichloro-1H-benzo[d]imidazol-1-yl)acetic Acid], the MIC (with S. aureus (ATCC29213); in assay [1]) was over 64 µg/mL in each case.

Consider `CN(C)CCn1c(-c2cc3ccc(Br)cc3[nH]2)nc2cc(Cl)c(Cl)cc21` [Compound 212, 2-(2-(6-Bromo-1H-indol-2-yl)-5,6-dichloro-1H-benzo[d]imidazol-1-yl)-N,N-dimethylethan-1-amine], for which the minimal inhibitory concentration (MIC) (with S. aureus (ATCC29213); in assay [1]) was over 64 µg/mL throughout.

As for `CC(C)(C)OC(=O)CCn1c(-c2cc3ccc(Br)cc3[nH]2)nc2cc(Cl)c(Cl)cc21` [Compound 214, tert-Butyl 3-(2-(6-bromo-1H-indol-2-yl)-5,6-dichloro-1H-benzo[d]imidazol-1-yl)propanoate], the minimum inhibitory concentration (MIC) (with S. aureus (ATCC29213); in assay [1]) was over 64 µg/mL throughout.

For the compound `Brc1ccc2cc(-c3nc4ncc(Br)cc4[nH]3)[nH]c2c1` [Compound 210, 6-Bromo-2-(6-bromo-1H-indol-2-yl)-1H-imidazo[4,5-b]pyridine], the minimum inhibitory concentration (MIC) (in the assay with S. aureus (ATCC29213); in assay [1]) was over 64 µg/mL each time.

Regarding `COC(CNC(=O)c1c(-c2cc3cc(Cl)ccc3[nH]2)[nH]c2cc(Br)ccc12)OC` [Compound 134, 6-Bromo-5′-chloro-N-(2,2-dimethoxyethyl)-1H,1′H-[2,2′-biindole]-3-carboxamide], the minimum inhibitory concentration (MIC) (in the assay with S. aureus (ATCC29213); in assay [1]) was over 64 µg/mL in each case.
